Measured values: PubChem BioAssay AID330 (DTP/NCI, 2004)
“And” between values parts separate entries of the source, which are not always exact repeats. Equal entries are not always repeated. Toxic doses and inconclusive results are not listed.

System: P388 leukemia ip, CD2F1 mice, survival T/C
Assay: NCI In Vivo Anticancer Drug Screen. Data for tumor model P388 Leukemia (intraperitoneal) in CD2F1 (CDF1) mice
Conditions: endpoint: median survival time, higher = longer survival
Method in brief: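 Mice carrying the transplanted tumor received test compound or vehicle. Survival was recorded in each group, and the value is the treated-group measurement divided by that of the vehicle-treated control group.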

[1] = dose: 50.0 mg/kg/injection, schedule: Q01DX005 (ip), vehicle: saline
[2] = dose: 100.0 mg/kg/injection, schedule: Q01DX005 (ip), vehicle: saline
[3] = dose: 200.0 mg/kg/injection, schedule: Q01DX005 (ip), vehicle: saline
[4] = dose: 60.0 mg/kg/injection, schedule: Q01DX005 (ip), vehicle: saline with Tween-80
[5] = dose: 120.0 mg/kg/injection, schedule: Q01DX005 (ip), vehicle: saline with Tween-80
[6] = dose: 240.0 mg/kg/injection, schedule: Q01DX005 (ip), vehicle: saline with Tween-80
[7] = dose: 50.0 mg/kg/injection, schedule: Q01DX005 (ip), vehicle: Klucel (hydroxypropylcellulose) (HPC)
[8] = dose: 100.0 mg/kg/injection, schedule: Q01DX005 (ip), vehicle: Klucel (hydroxypropylcellulose) (HPC)
[9] = dose: 60.0 mg/kg/injection, schedule: Q01DX005 (ip), vehicle: saline
[10] = dose: 120.0 mg/kg/injection, schedule: Q01DX005 (ip), vehicle: saline
[11] = dose: 240.0 mg/kg/injection, schedule: Q01DX005 (ip), vehicle: saline
[12] = dose: 200.0 mg/kg/injection, schedule: Q01DX005 (ip), vehicle: Klucel (hydroxypropylcellulose) (HPC)
[13] = dose: 50.0 mg/kg/injection, schedule: Q01DX009 (ip), vehicle: saline
[14] = dose: 100.0 mg/kg/injection, schedule: Q01DX009 (ip), vehicle: saline
[15] = dose: 200.0 mg/kg/injection, schedule: Q01DX009 (ip), vehicle: saline
[16] = dose: 60.0 mg/kg/injection, schedule: Q01DX005 (ip), vehicle: Klucel (hydroxypropylcellulose) (HPC)
[17] = dose: 120.0 mg/kg/injection, schedule: Q01DX005 (ip), vehicle: Klucel (hydroxypropylcellulose) (HPC)
[18] = dose: 240.0 mg/kg/injection, schedule: Q01DX005 (ip), vehicle: Klucel (hydroxypropylcellulose) (HPC)
[19] = dose: 6.25 mg/kg/injection, schedule: Q01DX005 (ip), vehicle: saline with Tween-80
[20] = dose: 12.5 mg/kg/injection, schedule: Q01DX005 (ip), vehicle: saline with Tween-80

For `c1ccc(-c2csnn2)cc1`, the T/C (dose: 25.0 mg/kg/injection, schedule: Q04DX003 (ip), vehicle: saline with Tween-80) was 99 % of control, the T/C (dose: 50.0 mg/kg/injection, schedule: Q04DX003 (ip), vehicle: saline with Tween-80) was 100 % of control and the T/C (dose: 100.0 mg/kg/injection, schedule: Q04DX003 (ip), vehicle: saline with Tween-80) was 99 % of control. For the same compound, the T/C (dose: 200.0 mg/kg/injection, schedule: Q04DX003 (ip), vehicle: saline with Tween-80) was 106 % of control.

In the case of `CC(NC(=O)CN(C)C(=O)OCc1ccccc1)C(=O)O` (stereo unspecified), the T/C [1] was 102 % of control, the T/C [2] was 96 % of control and the T/C [3] was 100 % of control.

In the case of `ClC1=CC=c2ccc3c(c2[N-]1)[N-]C(Cl)=CC=3.ClC1=CC=c2ccc3c(c2[N-]1)[N-]C(Cl)=CC=3.O=[N+]([O-])O.[Cu+]`, the T/C (dose: 6.25 mg/kg/injection, schedule: Q04DX002 (ip), vehicle: suspension in saline) was 101 % of control, the T/C (dose: 12.5 mg/kg/injection, schedule: Q04DX002 (ip), vehicle: suspension in saline) was 93 % of control and the T/C (dose: 25.0 mg/kg/injection, schedule: Q04DX002 (ip), vehicle: suspension in saline) was 98 % of control.

`CS(=O)(=O)N1COC(=O)[C@@H]1c1ccccc1` was tested, and the T/C [4] was 100 % of control, the T/C [5] was 101 % of control and the T/C [6] was 101 % of control.

In the case of `O=C(N/N=C/c1ccccn1)c1ccccc1[O-].O=C(N/N=C/c1ccccn1)c1ccccc1[O-].[Co+2]`, the T/C [7] was 113 % of control and the T/C [8] was 117 % of control.

For `CC(=O)N1CCN(C(C)=O)C2C1N(C(C)=O)CCN2C(C)=O` (stereo unspecified), the T/C [1] was 117 % of control, the T/C [9] was 105 % of control and the T/C [2] was 105 % of control. The T/C [10] was 107 % of control, the T/C [3] was 115 % of control and the T/C [11] was 100 % of control.

`COC(=O)C(=O)C(C)C(=O)C(C)c1nc2n(c1O)C(=N)N=N2` (stereo unspecified) was tested, and the T/C [1] was 98 % of control, the T/C [2] was 97 % of control and the T/C [3] was 96 % of control.

`[CH3][Sn]1([Cl])[O]CCNCC[O]1` was tested, and the T/C (dose: 25.0 mg/kg/injection, schedule: Q01DX005 (ip), vehicle: Klucel (hydroxypropylcellulose) (HPC)) was 102 % of control and 97 % of control, the T/C [7] was 98 % of control and 100 % of control and 92 % of control and the T/C [8] was 101 % of control and 109 % of control and 94 % of control. For the same compound, the T/C [12] was 102 % of control and 103 % of control.

With `N#CC1C(=O)NC(=S)NC1c1ccc2c(c1)CCC2` (stereo unspecified) the T/C [13] was 100 % of control, the T/C [14] was 95 % of control and the T/C [15] was 94 % of control.

With `CCCCOc1cccc2c(NCCCCCCCCNc3c4ccccc4nc4c(OCCCC)cccc34)c3ccccc3nc12` the T/C (dose: 0.62 mg/kg/injection, schedule: Q## X009 (ip), vehicle: lactic acid) was 107 % of control, the T/C (dose: 1.25 mg/kg/injection, schedule: Q## X009 (ip), vehicle: lactic acid) was 99 % of control and the T/C (dose: 2.5 mg/kg/injection, schedule: Q## X009 (ip), vehicle: lactic acid) was 99 % of control. For the same compound, the T/C (dose: 5.0 mg/kg/injection, schedule: Q## X009 (ip), vehicle: lactic acid) was 106 % of control and the T/C (dose: 10.0 mg/kg/injection, schedule: Q## X009 (ip), vehicle: lactic acid) was 91 % of control.

`NC(=O)c1[nH]cnc1N` was tested, and the T/C (dose: 25.0 mg/kg/injection, schedule: Q01DX009 (ip), vehicle: saline) was 99 % of control, the T/C [13] was 105 % of control and the T/C [14] was 99 % of control. For the same compound, the T/C (dose: 400.0 mg/kg/injection, schedule: Q01DX009 (ip), vehicle: saline) was 87 % of control.

`COc1cccc(/C=N\c2nc(-c3ccccc3Cl)cs2)c1O` was tested, and the T/C [7] was 89 % of control, the T/C [8] was 94 % of control and the T/C [12] was 105 % of control.

In the case of `O=c1c2ccccc2oc2nc3ccc(Cl)cc3n12`, the T/C (dose: 50.0 mg/kg/injection, schedule: Q01DX005 (ip), vehicle: saline with Tween-80) was 112 % of control, the T/C (dose: 100.0 mg/kg/injection, schedule: Q01DX005 (ip), vehicle: saline with Tween-80) was 101 % of control and the T/C (dose: 200.0 mg/kg/injection, schedule: Q01DX005 (ip), vehicle: saline with Tween-80) was 98 % of control.

With `CC1(C)CCCC2C1=NOC2O` (stereo unspecified) the T/C [13] was 100 % of control, the T/C [14] was 96 % of control and the T/C [15] was 100 % of control.

`CC(C)C(N)C(=O)Nc1nncs1` (stereo unspecified) was tested, and the T/C (dose: 100.0 mg/kg/injection, schedule: Q04DX002 (ip), vehicle: saline) was 106 % of control, the T/C (dose: 200.0 mg/kg/injection, schedule: Q04DX002 (ip), vehicle: saline) was 183 % of control and the T/C (dose: 400.0 mg/kg/injection, schedule: Q04DX002 (ip), vehicle: saline) was 157 % of control and 190 % of control. For the same compound, the T/C (dose: 600.0 mg/kg/injection, schedule: Q04DX002 (ip), vehicle: saline) was 171 % of control.

`CCC1C(=O)CC(C(=O)O)C1C(=O)O` (stereo unspecified) was tested, and the T/C (dose: 30.0 mg/kg/injection, schedule: Q01DX005 (ip), vehicle: saline) was 98 % of control, the T/C [9] was 98 % of control and 96 % of control and the T/C [10] was 95 % of control. The T/C [11] was 86 % of control.

In the case of `N#Cc1[nH]nc(N)c1C#N`, the T/C (dose: 100.0 mg/kg/injection, schedule: Q01DX001 (ip), vehicle: water) was 103 % of control, the T/C (dose: 200.0 mg/kg/injection, schedule: Q01DX001 (ip), vehicle: water) was 103 % of control and the T/C (dose: 400.0 mg/kg/injection, schedule: Q01DX001 (ip), vehicle: water) was 98 % of control.

With `COc1cccc(C(c2cc3c(cc2O)OCO3)N2CCCC2)c1O` (stereo unspecified) the T/C [16] was 109 % of control, the T/C [17] was 109 % of control and the T/C [18] was 115 % of control.

`N#CSc1c(-c2ccccc2)c2c(N)[nH]c(=O)nc2[nH]c1=O` was tested, and the T/C (dose: 15.0 mg/kg/injection, schedule: Q01DX005 (ip), vehicle: saline with Tween-80) was 107 % of control, the T/C (dose: 30.0 mg/kg/injection, schedule: Q01DX005 (ip), vehicle: saline with Tween-80) was 99 % of control and the T/C [4] was 90 % of control.

For `COC1=C(OC)C(=O)C(CC=C(C)C)=C(C)C1=O`, the T/C (dose: 12.5 mg/kg/injection, schedule: Q01DX009 (ip), vehicle: saline + alcohol) was 118 % of control, the T/C (dose: 25.0 mg/kg/injection, schedule: Q01DX009 (ip), vehicle: saline + alcohol) was 104 % of control and 110 % of control and the T/C (dose: 50.0 mg/kg/injection, schedule: Q01DX009 (ip), vehicle: saline + alcohol) was 103 % of control and 105 % of control. The T/C (dose: 100.0 mg/kg/injection, schedule: Q01DX009 (ip), vehicle: saline + alcohol) was 151 % of control.

With `CCN(CC)C(C)=S` the T/C [4] was 103 % of control, the T/C [5] was 110 % of control and the T/C [6] was 104 % of control.

With `CCN(CC)CCNc1ccc(COC(=O)OC)c2oc3ccccc3c(=O)c12` the T/C [19] was 115 % of control, the T/C [20] was 111 % of control and the T/C (dose: 25.0 mg/kg/injection, schedule: Q01DX005 (ip), vehicle: saline with Tween-80) was 97 % of control.

For `CCC[CH2][Sn]1([CH2]CCC)[O]C(=O)CC[S]1`, the T/C (dose: 3.13 mg/kg/injection, schedule: Q01DX005 (ip), vehicle: saline with Tween-80) was 121 % of control, the T/C [19] was 115 % of control and 120 % of control and the T/C [20] was 121 % of control.

`CC(N)C(=O)OCN1C(=O)C2C3C=CC(C2C1=O)C1C2C(=O)N(COC(=O)C(C)N)C(=O)C2C31` (stereo unspecified) was tested, and the T/C (dose: 25.0 mg/kg/injection, schedule: Q01DX009 (ip), vehicle: water) was 109 % of control and 112 % of control, the T/C (dose: 50.0 mg/kg/injection, schedule: Q01DX009 (ip), vehicle: water) was 108 % of control and the T/C (dose: 100.0 mg/kg/injection, schedule: Q01DX009 (ip), vehicle: water) was 178 % of control and 193 % of control.

For `Cc1c(-c2ccccc2)noc1-c1ccccc1`, the T/C (dose: 100.0 mg/kg/injection, schedule: Q04DX003 (ip), vehicle: saline) was 106 % of control, the T/C (dose: 200.0 mg/kg/injection, schedule: Q04DX003 (ip), vehicle: saline) was 102 % of control and the T/C (dose: 400.0 mg/kg/injection, schedule: Q04DX003 (ip), vehicle: saline) was 101 % of control.

`NS(=O)(=O)Oc1ccccc1C(=O)Oc1ccccc1Cl` was tested, and the T/C [16] was 99 % of control, the T/C [17] was 99 % of control and the T/C [18] was 94 % of control.

In the case of `c1ccc2c(SCCNCCSc3c4ccccc4nc4ccccc34)c3ccccc3nc2c1`, the T/C [16] was 106 % of control, the T/C [17] was 105 % of control and the T/C [18] was 106 % of control.
